Assay [1] addresses Beta-2 adrenergic receptor (Cavia porcellus, UniProt Q8K4Z4). In words: Agonist activity at beta2 adrenoceptor in guinea pig tracheal rings assessed as relaxation of tracheal smooth muscle. It is filed as functional, tissue-based, Trachea.
The nature of assay [2]: Bronchodialatory activity in guinea pig trachea assessed as tone recovery measured after 1 hr of drug washout. More on the design: concentration or dose not given beside the values. It is filed as functional, Cavia porcellus.
Assay [3] has as its system Cavia porcellus. As to the kind of experiment: Bronchocoprotective activity in guinea pig assessed as inhibition of acetylcholine-induced bronchoconstriction administered by aerosol after 24 hrs. It is filed as functional, organism-based.
Assay [4] has as its target Beta-1 adrenergic receptor (Rattus norvegicus, UniProt P18090). As to the kind of experiment: Agonist activity at beta1 adrenoceptor in rat left atria assessed as induction of ionotropic effect. It is filed as functional.
In assay [5] the test system is Cavia porcellus. As to the kind of experiment: Bronchocoprotective activity in guinea pig assessed as inhibition of acetylcholine-induced bronchoconstriction administered by aerosol after 4 hrs. The assay is classed as functional, organism-based.

Values after ≈ are worked out from the molar mass of the structure shown. Some results are limits rather than exact numbers.

Chain of Beta-2 adrenergic receptor (Q8K4Z4 whole entry): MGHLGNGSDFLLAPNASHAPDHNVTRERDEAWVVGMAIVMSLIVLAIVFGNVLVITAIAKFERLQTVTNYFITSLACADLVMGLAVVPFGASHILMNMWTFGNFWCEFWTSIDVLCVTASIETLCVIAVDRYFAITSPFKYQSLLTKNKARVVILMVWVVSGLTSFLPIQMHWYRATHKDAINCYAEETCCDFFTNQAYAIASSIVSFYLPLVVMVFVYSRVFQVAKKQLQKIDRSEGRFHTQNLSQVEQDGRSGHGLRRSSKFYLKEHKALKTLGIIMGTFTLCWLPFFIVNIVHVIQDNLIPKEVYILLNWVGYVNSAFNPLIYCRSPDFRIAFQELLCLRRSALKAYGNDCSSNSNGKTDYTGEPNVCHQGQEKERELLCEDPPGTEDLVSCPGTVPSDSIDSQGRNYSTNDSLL
Chain of Beta-1 adrenergic receptor (P18090 whole entry): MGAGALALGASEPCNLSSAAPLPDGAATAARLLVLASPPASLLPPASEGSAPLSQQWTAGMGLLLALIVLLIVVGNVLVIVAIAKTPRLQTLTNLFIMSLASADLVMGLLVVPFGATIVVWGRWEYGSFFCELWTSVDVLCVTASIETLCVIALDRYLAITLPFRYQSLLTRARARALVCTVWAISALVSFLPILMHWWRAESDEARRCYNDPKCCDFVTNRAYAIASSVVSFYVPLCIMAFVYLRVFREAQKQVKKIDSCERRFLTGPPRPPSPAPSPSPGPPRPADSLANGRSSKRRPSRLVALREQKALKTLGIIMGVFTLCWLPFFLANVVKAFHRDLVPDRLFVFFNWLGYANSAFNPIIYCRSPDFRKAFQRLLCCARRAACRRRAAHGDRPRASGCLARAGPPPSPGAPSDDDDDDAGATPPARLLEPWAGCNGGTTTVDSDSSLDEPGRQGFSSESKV

For the compound `CC(C)(C)c1ccc(CNC(=O)Nc2cccc(CCNCC(O)c3ccc(O)c4[nH]c(=O)ccc34)c2)cc1` (stereo unspecified), in assay [1], the EC50 turned out to be 0.9 nM. The Activity in assay [2] is listed as 5%.

With `NC(=O)C(c1ccccc1)(c1ccccc1)[C@@H]1CCN(CCc2ccc3c(c2)CCO3)C1` [DARIFENACIN], the figures for the EC50 in assay [1] and in assay [4] were 1 nM and 2310 nM, respectively. In addition, the Activity in assay [2] was 0%. Also, the figures for the IC50 in assay [3] and in assay [5] were 12 µg/mL (≈ 28.1 µM) and 5 µg/mL (≈ 11.7 µM), respectively.

For the compound `O=C(NCc1ccccc1)Nc1cccc(CCNCC(O)c2ccc(O)c3[nH]c(=O)ccc23)c1` (stereo unspecified), the EC50 in assay [1] was 0.2 nM; in assay [4], 900 nM. Also, the Activity in assay [2] is on record as 15%. Moreover, the IC50 in assay [3] was over 100 µg/mL; in assay [5] it was 0.3 µg/mL (≈ 0.635 µM).

For `O=C(NCc1ccc(F)cc1)Nc1cccc(CCNCC(O)c2ccc(O)c3[nH]c(=O)ccc23)c1` (stereo unspecified), the EC50 in assay [1] was 0.2 nM; in assay [4], 6300 nM. For the same compound, the Activity in assay [2] amounted to 16%.

For `COc1ccccc1CNC(=O)Nc1cccc(CCNCC(O)c2ccc(O)c3[nH]c(=O)ccc23)c1` (stereo unspecified), the 50% effective concentration (EC50) in assay [1] was determined as 0.2 nM; in assay [4], 550 nM. In addition, the Activity in assay [2] turned out to be 23%.

For the compound `O=C(Nc1cccc(CCNCC(O)c2ccc(O)c3[nH]c(=O)ccc23)c1)Nc1ccccc1-c1ccccc1` (stereo unspecified), the EC50 in assay [1] was found to be 0.7 nM; in assay [4] it was 5770 nM. Moreover, the Activity in assay [2] is 4%. The IC50 in assay [3] amounted to 7 µg/mL (≈ 13.1 µM); in assay [5] it was 3 µg/mL (≈ 5.61 µM).

In the case of `O=C(NCc1c(Cl)cccc1Cl)Nc1cccc(CCNCC(O)c2ccc(O)c3[nH]c(=O)ccc23)c1` (stereo unspecified), the EC50 in assay [1] was determined as 0.2 nM; in assay [4] it was 1600 nM. Moreover, the Activity in assay [2] is listed as 4%. Moreover, the IC50 is over 100 µg/mL in assay [3] and 4 µg/mL (≈ 7.39 µM) in assay [5].

With `O=C(NCCc1ccccc1)Nc1cccc(CCNCC(O)c2ccc(O)c3[nH]c(=O)ccc23)c1` (stereo unspecified), the EC50 in assay [1] is 0.09 nM; in assay [4], over 10000 nM. Also, the Activity in assay [2] is 9%. In addition, the values for the IC50 in assay [3] and in assay [5] were over 10 µg/mL and 2 µg/mL (≈ 4.11 µM), respectively.

Take `O=C(NCC12CC3CC(CC(C3)C1)C2)Nc1cccc(CCNCC(O)c2ccc(O)c3[nH]c(=O)ccc23)c1` (stereo unspecified): the values for the EC50 in assay [1] and in assay [4] were 3.2 nM and 296 nM, respectively. The Activity in assay [2] is listed as 8%.

`NC(=O)c1cccc(CNC(=O)Nc2cccc(CCNCC(O)c3ccc(O)c4[nH]c(=O)ccc34)c2)c1` (stereo unspecified): the EC50 in assay [1] was found to be 0.13 nM. The Activity in assay [2] is recorded as 52%.

In the case of `O=C(Nc1cccc(CCNCC(O)c2ccc(O)c3[nH]c(=O)ccc23)c1)Nc1cccc(Oc2ccccc2)c1` (stereo unspecified), the EC50 is 1 nM in assay [1] and 10000 nM in assay [4]. The Activity in assay [2] is given as 0%.

On to `O=C(Nc1cccc(CCNCC(O)c2ccc(O)c3[nH]c(=O)ccc23)c1)NC(c1ccccc1)c1ccccc1` (stereo unspecified), for which the values for the EC50 in assay [1] and in assay [4] were 0.2 nM and 8890 nM, respectively. Besides, the Activity in assay [2] amounted to 2%. In addition, the half-inhibitory concentration (IC50) in assay [3] was determined as 1.5 µg/mL (≈ 2.73 µM); in assay [5] it was 1 µg/mL (≈ 1.82 µM).

Turning to `O=C(Nc1ccccc1)Nc1cccc(CCNCC(O)c2ccc(O)c3[nH]c(=O)ccc23)c1` (stereo unspecified), the EC50 in assay [1] was 0.07 nM; in assay [4], over 10000 nM. Further, the Activity in assay [2] is given as 12%. Further, the IC50 in assay [3] was found to be 3 µg/mL (≈ 6.54 µM); in assay [5], 0.2 µg/mL (≈ 0.436 µM).

For the compound `O=C(NCCCc1ccccc1)Nc1cccc(CCNCC(O)c2ccc(O)c3[nH]c(=O)ccc23)c1` (stereo unspecified), the 50% effective concentration (EC50) is 0.05 nM in assay [1] and over 10000 nM in assay [4]. Further, in assay [2], the Activity worked out at 2%. The IC50 was 3 µg/mL (≈ 5.99 µM) in assay [3] and 1 µg/mL (≈ 2 µM) in assay [5].

One may read the EC50 as the concentration giving half of the maximal effect. One may read the IC50 as the concentration at which inhibition is half-maximal.

(Values after ChEMBL document CHEMBL1681641, “Discovery of substituted phenyl urea derivatives as novel long-acting β2-adrenoreceptor agonists” (Bioorg Med Chem Lett, 2011).)
